For one compound, IC50 results are on record in PMC5928890 (Theranostics, 2018).

pIC50: −log10 of the molar value.

In the test the target is Aβ(1-42) (Homo sapiens, UniProt P05067). Description: Aggregation inhibition by paper-based ECL assay with [Ru. Type of test: biochemical.
Aβ(1-42), sequence (P05067 672-713): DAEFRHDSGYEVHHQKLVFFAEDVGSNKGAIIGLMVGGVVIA

For orientation: pIC50 means the negative decadic logarithm of the IC50, by convention in mol/L. Low readings indicate a high IC50, high ones a low IC50. `Nc1c(/N=N/c2ccc(-c3ccc(/N=N/c4cc(S(=O)(=O)O)c5ccccc5c4N)cc3)cc2)cc(S(=O)(=O)O)c2ccccc12` [CR, Congo red] gave a pIC50 of 5.97.
